Experimental findings from patent publication US20260007131A1, “HERBICIDAL COMPOSITION CONTAINING DIFLUOROBUTENOIC ACID AMIDE COMPOUND” (ISHIHARA SANGYO KAISHA, LTD., priority 2022, published 2026) are described below.

Holding throughout (assay type): in vivo
Experiment [1] has as its system crabgrass (Digitaria sanguinalis). Description: Herbicidal effect on crabgrass (foliar treatment). The procedure: (§1) Upland soil was put into a 1/300,000 hectare (ha) pot, seeds of barnyardgrass (Echinochloa crus-galli) were sown, and about 1.5 cm of cover soil was put. The barnyardgrass was grown for 10 days in a greenhouse until it reached a predetermined leaf stage. […] The spray solution was sprayed over the grown barnyardgrass with a small sprayer for foliar treatment.
(§2) Upland soil was put into a 1/300,000 hectare (ha) pot, seeds of barnyardgrass (Echinochloa crus-galli), crabgrass (Digitaria sanguinalis), green foxtail (Setaria viridis), wild oat (Avena fatua), Italian ryegrass (Lolium multiflorum), foxtail shortawn (Alopecurus aequalis), annual bluegrass (Poa annua), redroot pigweed (Amaranthus retroflexus), common chickweed (Stellaria media) common lambsquarters (Chenopodium album) and black nightshade (Solanum nigrum) were sown, and about 1.5 cm of cover soil was put. The plants were grown for 10 days in a greenhouse until they reached a predetermined leaf stage.

For experiment [2], the system named is redroot pigweed (Amaranthus retroflexus). Description: Herbicidal effect on redroot pigweed (foliar treatment). Here is the method: as §1, §2
Experiment [3] relates to annual bluegrass (Poa annua). Description: Herbicidal effect on annual bluegrass (foliar treatment). The procedure:
as §1, §2

The test system of experiment [4] is common lambsquarters (Chenopodium album). Description: Herbicidal effect on common lambsquarters (foliar treatment). The procedure: as §1, §2

As a reminder, the inhibition is how much of the control response was suppressed. Turning to `COC(=O)[C@H]1C[C@@H](NC(=O)C(F)(F)/C=C/c2cc(F)cc(F)c2)C1` [Aa-1-1], the inhibition at 500 g/ha in experiment [1] (Comparative Test 1, crabgrass, 500 g/ha, read-out: Growth inhibition rate) is not below 90%; in experiment [2] (Comparative Test 1, redroot pigweed, 500 g/ha, read-out: Growth inhibition rate), 70 to 90%; in experiment [3] (Comparative Test 1, annual bluegrass, 500 g/ha, read-out: Growth inhibition rate), not below 90%; in experiment [4] (Comparative Test 1, common lambsquarters, 500 g/ha, read-out: Growth inhibition rate), 70 to 90%. Moreover, the inhibition at 1000 g/ha was not below 90% in experiment [1] (Comparative Test 1, crabgrass, 1000 g/ha, read-out: Growth inhibition rate); 70 to 90% in experiment [2] (Comparative Test 1, redroot pigweed, 1000 g/ha, read-out: Growth inhibition rate); not below 90% in experiment [3] (Comparative Test 1, annual bluegrass, 1000 g/ha, read-out: Growth inhibition rate); 70 to 90% in experiment [4] (Comparative Test 1, common lambsquarters, 1000 g/ha, read-out: Growth inhibition rate). The inhibition at 250 g/ha in experiment [1] (crabgrass, 250 g/ha, 14th day, read-out: growth inhibition rate) was not below 70%; in experiment [2] (redroot pigweed, 250 g/ha, 14th day, read-out: growth inhibition rate), not below 70%; in experiment [3] (annual bluegrass, 250 g/ha, 14th day, read-out: growth inhibition rate), not below 70%; in experiment [4] (common lambsquarters, 250 g/ha, 14th day, read-out: growth inhibition rate), not below 70%.
